{"source": "patent US12570641B2", "about": "“Solid forms of a CDK4 inhibitor” (Pfizer Inc., priority 2020, dated 2026)", "type_in_all_cases": "physicochemical", "key": {"[1]": {"assay": "Thermal stability by Differential Scanning Calorimetry (DSC)", "procedure": "Modulated Differential scanning calorimetry (DSC) measurements were performed with Discovery DSC (TA instruments) equipped with a refrigerated cooling accessory. All the experiments were performed in standard/Tzero aluminum pans. The cell constant was determined using indium and temperature calibration was performed using indium and tin as standards. All the measurements were done under continuous dry nitrogen purge (50 mL/min). Approximately 1-5 mg of solid sample was weighed into a Tzero aluminum pan, sealed non-hermetically and heated from −40° C. to 220° C. at 10° C./min heating rate. The experimental data were analyzed using commercially available software (TA Universal Analysis 2000/Trios software, TA Instruments).\n(§1) Thermal stability data were obtained through thermogravimetric analysis (TGA) according to General Method 4, and Differential Scanning Calorimetry (DSC) scan according to General Method 5A."}, "[2]": {"assay": "Moisture sorption (hygroscopicity), water sorption and desorption", "settings": "for form change at the completion of the moisture sorption run by PXRD: 25° C.; for Weight Gain (%) at 25° C., 60% RH: comparative summary of Forms 1, 2, 6 and 8", "procedure": "Water sorption and desorption studies were conducted on an automated vapor sorption analyzer (TA instruments Q5000 SA). The microbalance was calibrated using a 100 mg standard weight. The relative humidity (RH) sensor was calibrated at 5.0, 11.3, 32.8, 52.8, 75.3, and 84.3% RH (25° C.) using saturated salt solutions. Approximately 10-20 mg of the powder sample was placed in the quartz sample holder and dried at 3% RH at 60° C. The attainment of equilibrium was assumed when the weight change of the sample was <0.001 wt % in 5 min or by a maximum equilibration time of 300 minutes. […] Again, the attainment of equilibrium was assumed when the weight change of the sample was <0.001 wt % in 5 min or by a maximum equilibration time of 300 minutes. The weight gain at 60% RH is based on the weight after the initial drying step.\nWater sorption and desorption studies of PF-07220060 monohydrate (Form 2), prepared as described in Example 2, were conducted according to General Method 6.\nWater sorption and desorption studies of PF-07220060 hydrate (Form 1), prepared as described in Example 5B, were conducted according to General Method 6.\nComparative hygroscopicity experiments were performed using moisture sorption analysis according to General Method 6. PF-07220060 Forms 1, 2, 6, and 8 were evaluated using moisture sorption at 25° C., 60% RH. A form change at the completion of the run was not detected for any of the forms by PXRD."}, "[3]": {"assay": "Competitive slurry experiments in 2-propanol/1% water", "settings": "2-propanol/1% water, room temperature, 15 hours, PXRD", "procedure": "Competitive slurry experiments were performed between Form 1 and Form 2 (Entry 1), and between Form 6 and Form 2 (Entry 2), in 2-propanol/1% water. Entry 1: […] The solids were collected with vacuum filtration and analyzed with PXRD. PXRD data was consistent with PF-07220060 monohydrate (Form 2). Entry 2: […] The solids were collected with vacuum filtration and analyzed with PXRD. PXRD data was consistent with PF-07220060 monohydrate (Form 2)."}, "[4]": {"assay": "Thermal stability by thermogravimetric analysis (TGA)", "procedure": "Thermogravimetric analysis was conducted using a Discovery TGA (TA instruments) thermogravimetric analyzer. Samples of approximately 10 mg were weighed into aluminum pans and heated from ambient ([…]) to 250° C. at 10° C./minute heating rate under nitrogen purge (10 mL/min for both sample chamber and balance).\nas §1"}, "[5]": {"assay": "Slurry conversion in 10% MeCN/water, form by PXRD", "settings": "room temperature", "procedure": "Crystalline PF-07220060 hydrate (Form 1) (25 mg) prepared as described in Example 1, Vial A was suspended in 10% MeCN/water (0.5 mL) and slurried at room temperature for […]."}}}
{"smiles": "CC(C)n1c(C(C)(C)O)nc2c(F)cc(-c3nc(N[C@@H]4CCOC[C@H]4O)ncc3Cl)cc21", "note": "[Form 1, 1,5-anhydro-3-({5-chloro-4-[4-fluoro-2-(2-hydroxypropan-2-yl)-1-(propan-2-yl)-1H-benzimidazol-6-yl]pyrimidin-2-yl}amino)-2,3-dideoxy-D-threo-pentitol]", "values": [{"measurement": "Thermal stability via DSC (° C.)", "setting": "[1]; listed as Form 1 (hydrate)", "result": 0, "unit": "°C"}, {"measurement": "form change at the completion of the moisture sorption run by PXRD", "setting": "[2]; 60% RH", "result": "not detected"}, {"measurement": "Weight gain (%)", "setting": "[2]; 25 °C, RH 0%, listed as PF-07220060 hydrate (Form 1)", "result": 0.05, "unit": "%"}, {"measurement": "Weight gain (%)", "setting": "[2]; 25 °C, RH 10%, desorption, listed as PF-07220060 hydrate (Form 1)", "result": 1.26, "unit": "%"}, {"measurement": "Weight gain (%)", "setting": "[2]; 25 °C, RH 10%, sorption, listed as PF-07220060 hydrate (Form 1)", "result": 1.23, "unit": "%"}, {"measurement": "Weight gain (%)", "setting": "[2]; 25 °C, RH 20%, desorption, listed as PF-07220060 hydrate (Form 1)", "result": 2.38, "unit": "%"}, {"measurement": "Weight gain (%)", "setting": "[2]; 25 °C, RH 20%, sorption, listed as PF-07220060 hydrate (Form 1)", "result": 2.34, "unit": "%"}, {"measurement": "Weight gain (%)", "setting": "[2]; 25 °C, RH 30%, desorption, listed as PF-07220060 hydrate (Form 1)", "result": 2.87, "unit": "%"}, {"measurement": "Weight gain (%)", "setting": "[2]; 25 °C, RH 30%, sorption, listed as PF-07220060 hydrate (Form 1)", "result": 2.84, "unit": "%"}, {"measurement": "Weight gain (%)", "setting": "[2]; 25 °C, RH 40%, desorption, listed as PF-07220060 hydrate (Form 1)", "result": 3.13, "unit": "%"}, {"measurement": "Weight gain (%)", "setting": "[2]; 25 °C, RH 40%, sorption, listed as PF-07220060 hydrate (Form 1)", "result": 3.10, "unit": "%"}, {"measurement": "Weight gain (%)", "setting": "[2]; 25 °C, RH 50%, desorption, listed as PF-07220060 hydrate (Form 1)", "result": 3.30, "unit": "%"}, {"measurement": "Weight gain (%)", "setting": "[2]; 25 °C, RH 50%, sorption, listed as PF-07220060 hydrate (Form 1)", "result": 3.26, "unit": "%"}, {"measurement": "Weight gain (%)", "setting": "[2]; 25 °C, RH 60%, desorption, listed as PF-07220060 hydrate (Form 1)", "result": 3.41, "unit": "%"}, {"measurement": "Weight gain (%)", "setting": "[2]; 25 °C, RH 60%, sorption, listed as PF-07220060 hydrate (Form 1)", "result": 3.37, "unit": "%"}, {"measurement": "Weight gain (%)", "setting": "[2]; 25 °C, RH 70%, desorption, listed as PF-07220060 hydrate (Form 1)", "result": 3.49, "unit": "%"}, {"measurement": "Weight gain (%)", "setting": "[2]; 25 °C, RH 70%, sorption, listed as PF-07220060 hydrate (Form 1)", "result": 3.46, "unit": "%"}, {"measurement": "Weight gain (%)", "setting": "[2]; 25 °C, RH 80%, desorption, listed as PF-07220060 hydrate (Form 1)", "result": 3.55, "unit": "%"}, {"measurement": "Weight gain (%)", "setting": "[2]; 25 °C, RH 80%, sorption, listed as PF-07220060 hydrate (Form 1)", "result": 3.53, "unit": "%"}, {"measurement": "Weight gain (%)", "setting": "[2]; 25 °C, RH 90%, listed as PF-07220060 hydrate (Form 1)", "result": 3.61, "unit": "%"}, {"measurement": "Weight gain (%)", "setting": "[2]; 60 °C, RH 0% (initial drying step)", "result": 0.00, "unit": "%"}, {"measurement": "Weight Gain (%) at 25° C., 60% RH", "setting": "[2]", "result": "~3", "unit": "%"}, {"measurement": "Out-going form", "setting": "[3]", "result": "converted to Form 2"}, {"measurement": "Thermal stability via TGA (° C.)", "setting": "[4]; listed as Form 1 (hydrate)", "result": 20, "unit": "°C"}, {"measurement": "form after slurry by PXRD", "setting": "[5]", "result": "converted to PF-07220060 monohydrate (Form 2)"}]}
{"smiles": "CC(C)n1c(C(C)(C)O)nc2c(F)cc(-c3nc(N[C@@H]4CCOC[C@H]4O)ncc3Cl)cc21", "note": "[Form 6, 1,5-anhydro-3-({5-chloro-4-[4-fluoro-2-(2-hydroxypropan-2-yl)-1-(propan-2-yl)-1H-benzimidazol-6-yl]pyrimidin-2-yl}amino)-2,3-dideoxy-D-threo-pentitol]", "values": [{"measurement": "thermal stability relative to Form 1 and Form 8", "setting": "[1]; TGA and DSC", "result": "improved thermal stability"}, {"measurement": "Thermal stability via DSC (° C.)", "setting": "[1]; listed as Form 6 (anhydrous)", "result": 195, "unit": "°C"}, {"measurement": "form change at the completion of the moisture sorption run by PXRD", "setting": "[2]; 60% RH", "result": "not detected"}, {"measurement": "Weight Gain (%) at 25° C., 60% RH", "setting": "[2]", "result": "<1", "unit": "%"}, {"measurement": "hygroscopicity relative to Form 8 and Form 1", "setting": "[2]; moisture sorption at 25° C., 60% RH", "result": "reduced hygroscopicity"}, {"measurement": "Out-going form", "setting": "[3]", "result": "converted to Form 2"}, {"measurement": "Thermal stability via TGA (° C.)", "setting": "[4]; listed as Form 6 (anhydrous)", "result": 195, "unit": "°C"}]}
{"smiles": "CC(C)n1c(C(C)(C)O)nc2c(F)cc(-c3nc(N[C@@H]4CCOC[C@H]4O)ncc3Cl)cc21", "note": "[Form 8, 1,5-anhydro-3-({5-chloro-4-[4-fluoro-2-(2-hydroxypropan-2-yl)-1-(propan-2-yl)-1H-benzimidazol-6-yl]pyrimidin-2-yl}amino)-2,3-dideoxy-D-threo-pentitol]", "values": [{"measurement": "Thermal stability via DSC (° C.)", "setting": "[1]; listed as Form 8 (amorphous)", "result": "−10", "unit": "°C"}, {"measurement": "form change at the completion of the moisture sorption run by PXRD", "setting": "[2]; 60% RH", "result": "not detected"}, {"measurement": "Weight Gain (%) at 25° C., 60% RH", "setting": "[2]", "result": "~2", "unit": "%"}, {"measurement": "Thermal stability via TGA (° C.)", "setting": "[4]; listed as Form 8 (amorphous)", "result": 20, "unit": "°C"}]}
